Source: ChEMBL document CHEMBL1201862, “PubChem BioAssay data set” (2004)
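Exposure lasted 48 hours, with cells grown in 96-well plates and compounds tested at five concentrations. At the GI50, growth is halved.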 The source made the active and inactive calls. No stated cut-off is given here; in the data, active = GI50 up to about 1.1 µM and inactive = higher.

What was measured:
Assay in all cases: DTP human tumour cell line panel, 48 h
DU-145 = test system: DU-145
HOP-92 = test system: HOP-92
SK-MEL-28 = test system: SK-MEL-28
HCT-15 = test system: HCT-15
M14 = test system: M14
NCI-H522 = test system: NCI-H522
CAKI-1 = test system: CAKI-1
HCC 2998 = test system: HCC 2998
Hs-578T = test system: Hs-578T
HOP-62 = test system: HOP-62
Malme-3M = test system: Malme-3M
T47D = test system: T47D
NCI-H23 = test system: NCI-H23
TK-10 = test system: TK-10
NCI/ADR-RES = test system: NCI/ADR-RES
786-0 = test system: 786-0
A498 = test system: A498
UACC-257 = test system: UACC-257
OVCAR-8 = test system: OVCAR-8
OVCAR-3 = test system: OVCAR-3
U-251 = test system: U-251
MDA-MB-435 = test system: MDA-MB-435
SK-MEL-5 = test system: SK-MEL-5
SF-295 = test system: SF-295
MCF7 = test system: MCF7
NCI-H226 = test system: NCI-H226
SF-268 = test system: SF-268
EKVX = test system: EKVX
MOLT-4 = test system: MOLT-4
RPMI-8226 = test system: RPMI-8226
A549 = test system: A549
CCRF-CEM = test system: CCRF-CEM
LOX IMVI = test system: LOX IMVI
NCI-H460 = test system: NCI-H460
SK-OV-3 = test system: SK-OV-3
RXF 393 = test system: RXF 393
MDA-MB-231 = test system: MDA-MB-231
SF-539 = test system: SF-539
MDA-N = test system: MDA-N
BT-549 = test system: BT-549
ACHN = test system: ACHN
OVCAR-5 = test system: OVCAR-5
HL-60 = test system: HL-60
K562 = test system: K562
UACC-62 = test system: UACC-62
KM12 = test system: KM12
SW-620 = test system: SW-620
OVCAR-4 = test system: OVCAR-4
SN12C = test system: SN12C
COLO 205 = test system: COLO 205
SNB-19 = test system: SNB-19
HCT-116 = test system: HCT-116
UO-31 = test system: UO-31
SK-MEL-2 = test system: SK-MEL-2
IGROV-1 = test system: IGROV-1
SNB-75 = test system: SNB-75
PC-3 = test system: PC-3
HT-29 = test system: HT-29

For `COc1cc(/C=C2/SC(c3ccccc3)N(c3cccc([N+](=O)[O-])c3)C2=O)cc(OC)c1OC` (stereo not drawn), the GI50 (DU-145) was > 100 µM (inactive), the GI50 (HOP-92) was > 100 µM (inactive) and the GI50 (SK-MEL-28) was 55.5 µM (inactive). For the same compound, the GI50 (HCT-15) was greater than 100 µM, the GI50 (M14) was > 100 µM (inactive) and the GI50 (NCI-H522) was 60.5 µM (inactive). For the same compound, the GI50 (CAKI-1) was > 100 µM (inactive), the GI50 (HCC 2998) was > 100 µM (inactive) and the GI50 (Hs-578T) was > 100 µM (inactive). The GI50 (HOP-62) was > 100 µM (inactive), the GI50 (Malme-3M) was 82.8 µM (inactive) and the GI50 (T47D) was 97.5 µM (inactive). For the same compound, the GI50 (NCI-H23) was > 100 µM (inactive), the GI50 (TK-10) was > 100 µM (inactive) and the GI50 (NCI/ADR-RES) was > 100 µM (inactive). The GI50 (786-0) was > 100 µM (inactive), the GI50 (A498) was > 100 µM (inactive) and the GI50 (UACC-257) was > 100 µM (inactive). The GI50 (OVCAR-8) was > 100 µM (inactive), the GI50 (OVCAR-3) was > 100 µM (inactive) and the GI50 (U-251) was > 100 µM (inactive). For the same compound, the GI50 (MDA-MB-435) was 26.9 µM (inactive), the GI50 (SK-MEL-5) was 50.1 µM (inactive) and the GI50 (SF-295) was > 100 µM (inactive). The GI50 (MCF7) was 46.2 µM (inactive), the GI50 (NCI-H226) was > 100 µM (inactive) and the GI50 (SF-268) was > 100 µM (inactive). For the same compound, the GI50 (EKVX) was > 100 µM (inactive), the GI50 (MOLT-4) was > 100 µM (inactive) and the GI50 (RPMI-8226) was > 100 µM (inactive). For the same compound, the GI50 (A549) was > 100 µM (inactive), the GI50 (CCRF-CEM) was 22.2 µM (inactive) and the GI50 (LOX IMVI) was > 100 µM (inactive). The GI50 (NCI-H460) was > 100 µM (inactive), the GI50 (SK-OV-3) was > 100 µM (inactive) and the GI50 (RXF 393) was > 100 µM (inactive). For the same compound, the GI50 (MDA-MB-231) was > 100 µM (inactive), the GI50 (SF-539) was > 100 µM (inactive) and the GI50 (MDA-N) was 25.1 µM (inactive). The GI50 (BT-549) was > 100 µM (inactive), the GI50 (ACHN) was > 100 µM (inactive) and the GI50 (OVCAR-5) was > 100 µM (inactive). For the same compound, the GI50 (HL-60) was 60.8 µM (inactive), the GI50 (K562) was > 100 µM (inactive) and the GI50 (UACC-62) was 95.3 µM (inactive). For the same compound, the GI50 (KM12) was 95.1 µM (inactive), the GI50 (SW-620) was 74.5 µM (inactive) and the GI50 (OVCAR-4) was > 100 µM (inactive). For the same compound, the GI50 (SN12C) was > 100 µM (inactive), the GI50 (COLO 205) was > 100 µM (inactive) and the GI50 (SNB-19) was > 100 µM (inactive). The GI50 (HCT-116) was 61.4 µM (inactive), the GI50 (UO-31) was > 100 µM (inactive) and the GI50 (SK-MEL-2) was > 100 µM (inactive).

In the case of `Cc1ccsc1/C=N/Nc1cc(C)c2cccc(C)c2n1`, the GI50 (DU-145) is reported as > 100 µM (inactive), the GI50 (HOP-92) is reported as > 100 µM (inactive) and the GI50 (SK-MEL-28) is reported as > 100 µM (inactive). For the same compound, the GI50 (M14) was > 100 µM (inactive), the GI50 (CAKI-1) was > 100 µM (inactive) and the GI50 (HCC 2998) was > 100 µM (inactive). The GI50 (Hs-578T) was > 100 µM (inactive), the GI50 (HOP-62) was > 100 µM (inactive) and the GI50 (T47D) was > 100 µM (inactive). The GI50 (NCI-H23) was > 100 µM (inactive), the GI50 (TK-10) was > 100 µM (inactive) and the GI50 (NCI/ADR-RES) was > 100 µM (inactive). For the same compound, the GI50 (IGROV-1) was 1.6 µM (inactive), the GI50 (786-0) was 24.4 µM (inactive) and the GI50 (A498) was > 100 µM (inactive). The GI50 (UACC-257) was > 100 µM (inactive), the GI50 (OVCAR-8) was > 100 µM (inactive) and the GI50 (OVCAR-3) was > 100 µM (inactive). For the same compound, the GI50 (U-251) was > 100 µM (inactive), the GI50 (MDA-MB-435) was > 100 µM (inactive) and the GI50 (SF-295) was 9.33 µM (inactive). For the same compound, the GI50 (MCF7) was 2.75 µM (inactive), the GI50 (SNB-75) was > 100 µM (inactive) and the GI50 (NCI-H226) was > 100 µM (inactive). The GI50 (SF-268) was > 100 µM (inactive), the GI50 (EKVX) was > 100 µM (inactive) and the GI50 (A549) was > 100 µM (inactive). The GI50 (SK-OV-3) was 84.5 µM (inactive), the GI50 (MDA-N) was > 100 µM (inactive) and the GI50 (BT-549) was > 100 µM (inactive). The GI50 (ACHN) was > 100 µM (inactive), the GI50 (OVCAR-5) was > 100 µM (inactive) and the GI50 (HL-60) was 3.78 µM (inactive). For the same compound, the GI50 (UACC-62) was > 100 µM (inactive), the GI50 (KM12) was > 100 µM (inactive) and the GI50 (SW-620) was > 100 µM (inactive). For the same compound, the GI50 (OVCAR-4) was > 100 µM (inactive), the GI50 (SN12C) was > 100 µM (inactive) and the GI50 (COLO 205) was > 100 µM (inactive). For the same compound, the GI50 (SNB-19) was > 100 µM (inactive), the GI50 (PC-3) was 4.89 µM (inactive) and the GI50 (SK-MEL-2) was > 100 µM (inactive). The GI50 (HT-29) was 4.14 µM (inactive).

With `Cc1ccc(S(=O)(=O)NC(=O)NCC(=O)O)cc1` the GI50 (DU-145) was > 100 µM (inactive), the GI50 (HOP-92) was > 100 µM (inactive) and the GI50 (SK-MEL-28) was > 100 µM (inactive). The GI50 (HCT-15) was greater than 100 µM, the GI50 (M14) was > 100 µM (inactive) and the GI50 (NCI-H522) was > 100 µM (inactive). For the same compound, the GI50 (Hs-578T) was > 100 µM (inactive), the GI50 (HOP-62) was > 100 µM (inactive) and the GI50 (Malme-3M) was > 100 µM (inactive). For the same compound, the GI50 (T47D) was > 100 µM (inactive), the GI50 (NCI-H23) was > 100 µM (inactive) and the GI50 (TK-10) was > 100 µM (inactive). The GI50 (NCI/ADR-RES) was > 100 µM (inactive), the GI50 (IGROV-1) was > 100 µM (inactive) and the GI50 (786-0) was > 100 µM (inactive). The GI50 (UACC-257) was > 100 µM (inactive), the GI50 (OVCAR-8) was > 100 µM (inactive) and the GI50 (U-251) was > 100 µM (inactive). For the same compound, the GI50 (SK-MEL-5) was > 100 µM (inactive), the GI50 (SF-295) was > 100 µM (inactive) and the GI50 (MCF7) was > 100 µM (inactive). For the same compound, the GI50 (SNB-75) was > 100 µM (inactive), the GI50 (SF-268) was > 100 µM (inactive) and the GI50 (MOLT-4) was > 100 µM (inactive). For the same compound, the GI50 (RPMI-8226) was > 100 µM (inactive), the GI50 (A549) was > 100 µM (inactive) and the GI50 (CCRF-CEM) was > 100 µM (inactive). For the same compound, the GI50 (LOX IMVI) was > 100 µM (inactive), the GI50 (NCI-H460) was > 100 µM (inactive) and the GI50 (SK-OV-3) was > 100 µM (inactive). For the same compound, the GI50 (RXF 393) was > 100 µM (inactive), the GI50 (MDA-MB-231) was > 100 µM (inactive) and the GI50 (SF-539) was > 100 µM (inactive). For the same compound, the GI50 (MDA-N) was > 100 µM (inactive), the GI50 (BT-549) was > 100 µM (inactive) and the GI50 (ACHN) was > 100 µM (inactive). For the same compound, the GI50 (OVCAR-5) was > 100 µM (inactive), the GI50 (HL-60) was > 100 µM (inactive) and the GI50 (K562) was > 100 µM (inactive). For the same compound, the GI50 (UACC-62) was > 100 µM (inactive), the GI50 (KM12) was > 100 µM (inactive) and the GI50 (SW-620) was > 100 µM (inactive). The GI50 (OVCAR-4) was > 100 µM (inactive), the GI50 (SN12C) was > 100 µM (inactive) and the GI50 (COLO 205) was > 100 µM (inactive). The GI50 (SNB-19) was > 100 µM (inactive), the GI50 (HCT-116) was > 100 µM (inactive) and the GI50 (UO-31) was > 100 µM (inactive). For the same compound, the GI50 (PC-3) was > 100 µM (inactive), the GI50 (SK-MEL-2) was > 100 µM (inactive) and the GI50 (HT-29) was > 100 µM (inactive).
